Source: PubChem BioAssay (NCI)
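The compound was tested at five concentrations on cells cultured in 96-well plates, with a 48-hour exposure period. GI50: concentration for 50% inhibition of growth. The concentration for full growth arrest is given as TGI.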

Experiments:
Assay in all cases: NCI anticancer screen, dose series, 48 h
SW-620 colon = tested on: SW-620 colon
HT29 colon = tested on: HT29 colon
MALME-3M melanoma = tested on: MALME-3M melanoma
HOP-92 NSCLC = tested on: HOP-92 NSCLC
A549 NSCLC = tested on: A549 NSCLC
OVCAR-5 ovarian = tested on: OVCAR-5 ovarian
786-0 renal = tested on: 786-0 renal
COLO 205 colon = tested on: COLO 205 colon
RPMI-8226 leukemia = tested on: RPMI-8226 leukemia
HS 578T breast = tested on: HS 578T breast
MDA-MB-231 breast = tested on: MDA-MB-231 breast

SMILES | TGI (SW-620 colon) | TGI (HT29 colon) | TGI (MALME-3M melanoma) | TGI (HOP-92 NSCLC) | TGI (A549 NSCLC) | TGI (OVCAR-5 ovarian) | TGI (786-0 renal) | TGI (COLO 205 colon) | TGI (RPMI-8226 leukemia) | GI50 (HS 578T breast) | TGI (HS 578T breast) | GI50 (RPMI-8226 leukemia) | GI50 (HT29 colon) | GI50 (MDA-MB-231 breast) | TGI (MDA-MB-231 breast) | GI50 (HOP-92 NSCLC) | GI50 (A549 NSCLC) | GI50 (OVCAR-5 ovarian)
C/C=C/C=C/[C@H]1Cc2cc(O)cc(O)c2O1 | > 100 µM | > 100 µM | > 100 µM | > 100 µM | > 100 µM | > 100 µM | > 100 µM | > 100 µM | – | – | – | – | – | – | – | – | – | –
CC1=NN(C(=O)c2ccc(Cl)cc2)C(=O)/C1=C/c1cccc(O)c1 | > 100 µM | > 100 µM | > 100 µM | > 100 µM | > 100 µM | > 100 µM | > 100 µM | > 100 µM | > 100 µM | – | – | – | – | – | – | – | – | –
CCN(CC)CC(C)(C)C(=O)/C=C/c1ccc(C)cc1 | 15.7 µM | 12.3 µM | 21.7 µM | 8.45 µM | 42.7 µM | 27.6 µM | 23.2 µM | – | – | – | – | – | – | – | – | – | – | –
CCCCCCCCCCCCCCCCCC(=O)NCCCNCCCNC(=O)CCCCCCCCCCCCCCCCC | > 100 µM | > 100 µM | > 100 µM | > 100 µM | > 100 µM | > 100 µM | > 100 µM | > 100 µM | > 100 µM | – | – | – | – | – | – | – | – | –
Clc1ccc2c(NCCNc3nc(-c4ccccc4)cc(-c4ccccc4)n3)ccnc2c1 | – | 3.31 µM | – | 3.14 µM | 3.78 µM | 3.17 µM | – | – | 5.1 µM | 1.99 µM | 4.56 µM | 2.19 µM | 1.66 µM | 1.85 µM | 3.44 µM | 1.61 µM | 2 µM | 1.68 µM
C[n+]1c2ccccc2c(NC(CCC(N)=O)C(=O)O)c2ccccc21 (stereo not drawn) | > 100 µM | > 100 µM | > 100 µM | > 100 µM | > 100 µM | > 100 µM | > 100 µM | > 100 µM | > 100 µM | – | – | – | – | – | – | – | – | –
Cc1[nH]n(-c2ccccc2)c(=S)c1C(=O)c1ccccc1 | > 100 µM | – | > 100 µM | – | > 100 µM | > 100 µM | – | > 100 µM | 50.2 µM | – | – | – | – | – | – | – | – | –
CC[n+]1[b-](C(C)(C)C)n(/N=C(\C)C(C)(C)C)[b-](C(C)(C)C)[n+]1CC | > 100 µM | > 100 µM | > 100 µM | – | > 100 µM | > 100 µM | > 100 µM | – | – | – | > 100 µM | – | – | – | > 100 µM | – | – | –
Nc1nc(Cl)c2ncn(Cc3ccccc3CCl)c2n1 | 11.8 µM | 18.9 µM | 10.2 µM | 31.1 µM | 53.1 µM | 39.8 µM | 52 µM | > 100 µM | > 100 µM | – | 77.6 µM | – | – | – | 9.61 µM | – | – | –
Cc1ccc2c(c1)NC(=O)C(N=[N+]=[N-])(c1ccccc1)C2=O (stereo not drawn) | > 100 µM | 43.9 µM | 71.6 µM | 85.2 µM | > 100 µM | > 100 µM | > 100 µM | 27.1 µM | – | – | – | – | – | – | – | – | – | –
CCC12C=CCN3CC[C@]4(C(=C(C(=O)OC)[C@@H]1Nc1ccn(C5OC(COC(C)=O)C(OC(C)=O)C5OC(C)=O)c(=O)n1)Nc1ccccc14)C32 (stereo partly drawn) | 9.41 µM | 8.4 µM | 9.74 µM | 8.02 µM | 15.1 µM | 3.6 µM | 8.9 µM | 8.11 µM | 14.7 µM | – | – | – | – | – | – | – | – | –
CCOc1ccc(N=Cc2cc(OC)c(OC)c(OC)c2)cc1 | 32.1 µM | > 100 µM | > 100 µM | > 100 µM | > 100 µM | > 100 µM | > 100 µM | > 100 µM | 45.1 µM | – | – | – | – | – | – | – | – | –
O=[N+]([O-])c1cc(Cl)ccc1S(=O)(=O)c1ccccc1 | > 100 µM | > 100 µM | > 100 µM | > 100 µM | > 100 µM | > 100 µM | > 100 µM | > 100 µM | > 100 µM | – | > 100 µM | – | – | – | > 100 µM | – | – | –
Cc1ccc(N2C(=O)/C(=c3\s/c(=C(/N)O)c(=N)n3-c3ccccc3)SC2=S)cc1 | > 100 µM | > 100 µM | – | 47.1 µM | > 100 µM | > 100 µM | – | > 100 µM | > 100 µM | – | – | – | – | – | – | – | – | –
C(/COc1cccnc1)=N\NC1=NCCN1 | > 100 µM | > 100 µM | > 100 µM | > 100 µM | > 100 µM | > 100 µM | > 100 µM | > 100 µM | > 100 µM | – | – | – | – | – | – | – | – | –
CC1=CCC2(C#N)CCC1C2=O (stereo not drawn) | > 100 µM | > 100 µM | > 100 µM | – | > 100 µM | > 100 µM | > 100 µM | > 100 µM | > 100 µM | – | – | – | – | – | – | – | – | –
CC(C)(C)C1CCC2c3c([nH]c4ccccc34)C3C(=O)N(c4ccc(Br)cc4)C(=O)C3C2C1 (stereo not drawn) | 49.4 µM | 44.3 µM | > 100 µM | 49 µM | 47.5 µM | 56.5 µM | 37.3 µM | 23.3 µM | 38.6 µM | – | – | – | – | – | – | – | – | –
c1ccc2cc3n[se]nc3cc2c1 | > 100 µM | > 100 µM | > 100 µM | – | > 100 µM | > 100 µM | – | > 100 µM | > 100 µM | – | – | – | – | – | – | – | – | –
CCC(C)(C)NC1=C(NC(C)=O)C(=O)c2ccccc2C1=O | > 75 µM | > 75 µM | > 75 µM | – | > 75 µM | – | > 75 µM | > 75 µM | – | – | – | – | – | – | – | – | – | –
CC(C)NC(C)Cc1ccccc1 (stereo not drawn) | > 100 µM | > 100 µM | > 100 µM | > 100 µM | > 100 µM | > 100 µM | > 100 µM | > 100 µM | > 100 µM | – | – | – | – | – | – | – | – | –
